This is an account of results in patent US20240043410A1, “SULPHAMOYL UREA DERIVATIVES CONTAINING ALKYL-OXACYCLOALKYL MOIETY AND USES THEREOF” (NodThera Limited, priority 2020, published 2024).

A value given as a limit tells only on which side of the number the result lay.

One data set deals with T1, P-glycoprotein (P-gp) (Homo sapiens, UniProt P08183).
T1 construct: expressed in transfected cells; host or cells: MDCK-MDR1 cells
The data set can be described thus: P-gp MDCK-MDR1 permeability assay. Type of data set: in vitro ADME. Conditions: efflux ratio, MDCK-MDR1 cells. Here is the method: P-gp MDCK-MDR1 Studies. The compounds of the present disclosure were tested in a MDCK-MDR1 permeability assay to assess whether they are actively transported out of cells by the efflux protein, P-glycoprotein (P-gp).
Protocol. MDCK-MDR1 cells were used between passage numbers 6-30. Cells were seeded onto Millipore Multiscreen Transwell plates at 3.4×10^5 cells/cm^2. The cells were cultured in DMEM and media was changed on Day 3. On Day 4 the P-gp inhibition study was performed. Cell culture and assay incubations were carried out at 37° C. in an atmosphere of 5% CO2 with a relative humidity of 95%. On the day of the assay, the monolayers were prepared by rinsing both apical and basolateral surfaces twice with warmed (37° C.) transport buffer (Hanks Balanced Salt Solution [HBSS] containing 25 mM HEPES and 4.45 mM glucose, pH 7.4). Cells were then incubated with transport buffer containing test compound or positive control inhibitor (elacridar) in both apical and basolateral compartments for 30 minutes at 37° C. The dosing solutions were prepared by diluting digoxin and test compound where applicable to give a final digoxin concentration of 5 μM (final DMSO concentration of 1% v/v). The fluorescent integrity marker lucifer yellow was prepared in receiver solutions in vehicle or test compound-containing transport buffer. After pre-incubation, the transport buffer was removed from both apical and basolateral compartments and replaced with the appropriate dosing or receiver solution.
For assessment of B-A permeability, transport buffer was removed from the basolateral companion plate and replaced with dosing solution. Fresh transport buffer containing lucifer yellow and test compound where applicable (final DMSO concentration 1% v/v) was added to the apical compartment insert, which was then placed into the companion plate. After a 90-minute incubation the apical compartment inserts and the companion plates were separated and compartments sampled for analysis. Seven concentrations of test compound (up to 100 μM) were assessed in addition to a vehicle control (0 μM). A triplicate determination of each concentration was performed. The positive control inhibitor was evaluated in parallel. [^3H]-digoxin was quantified by liquid scintillation counting to give disintegrations per minute (dpm). The integrity of the monolayer throughout the experiment was checked by monitoring lucifer yellow permeation using fluorimetric analysis.
The efflux ratio (ER) values of compounds of the present disclosure are shown in Table B below (“****” means <3; “***” 3≥ and <10; “**” means ≥10 and <30; “*” means ≥30).

In data set [1] the test system is IL-1β release upon NLRP3 activation in peripheral blood mononuclear cells (PBMC). The data set can be described thus: PBMC IC50 Determination Assay. The format is cell-based. The conditions noted are these: Homo sapiens; LPS-primed PBMC stimulated with ATP (5 mM) or nigericin (10 μM); IL-1β by ELISA (Protocol A) or HTRF (Protocol B); salts tested. The protocol:
PBMC IC50 Determination Assay. The compounds of the present disclosure were tested for their inhibitory activity against IL-1β release upon NLRP3 activation in peripheral blood mononuclear cells (PBMC).
Protocol A. PBMC were isolated from buffy coats by density gradient centrifugation on Histopaque-1077 (Sigma, cat no. 10771). Isolated cells were seeded into the wells of a 96-well plate and incubated for 3 h with lipopolysaccharide (LPS). Following medium exchange, the compounds of the present disclosure were added (a single compound per well) and the cells were incubated for 30 min. Next, the cells were stimulated either with ATP (5 mM) or nigericin (10 μM) for 1 h and the cell culture media from the wells were collected for further analysis. The release of IL1-β into the media was determined by a quantitative detection of IL-1β in the media using an IL-1β enzyme-linked immunosorbent assay (ELISA) Ready-SET-Go!, eBioscience cat. No. 88-7261-88. Briefly, in a first step, high affinity binding plates (Corning, Costar 9018 or NUNC Maxisorp Cat No. 44-2404) were coated overnight at 4° C. with specific capture antibody included in the kit (anti-human IL-1β ref. 14-7018-68). Subsequently, plates were blocked with blocking buffer for 1 h at room temperature (rt) and after washing with a buffer (PBS with 0.05% Tween-20) incubated with protein standard and culture media. After 2 h of incubation at rt, plates were washed and incubated with biotinylated detection antibody included in the kit (anti-human IL-1β Biotin ref. 33-7110-68) for 1 h at rt. Plates were washed and incubated with HRP-streptavidin for 30 min at rt and washed again. The signal was developed after addition of 3,3′,5,5′-tetramethylbenzidine-peroxidase (TMB) until colour appeared and the reaction was stopped by 2 M H2SO4. A microplate spectrophotometer (BioTek) was used to detect signals with 450 nm. The detection range of IL-1β 3 ELISA was 2-150 ng/mL.
Protocol B. PBMC were isolated from buffy coats by density gradient centrifugation on Histopaque-1077 (Sigma, cat no. 10771). Isolated cells were seeded into the wells (280,000 cells/well) of a 96-well plate and incubated for 3 h with lipopolysaccharide (LPS, 1 μg/mL diluted 1000× from a 1 mg/mL stock solution). The compounds of the present disclosure were added (a single compound per well) and the cells were incubated for 30 min. Next, the cells were stimulated with ATP (5 mM final concentration diluted 20× from a 100 mM stock solution) for 1 h and the cell culture media from the wells were collected for further analysis. The release of IL-1β into the media was determined by quantitative detection of IL-1 in the media using HTRF®, CisBio cat. No. 62HIL1BPEH. Briefly, cell culture supernatant were dispensed directly into the assay plate containing antibodies labelled with the HTRF® donor and acceptor. A microplate spectrophotometer (BMG) was used to detect signals at 655 nm and 620 nm. The detection range of IL-1β HTRF® was […].

Data set [2] is described as follows: Thermodynamic (equilibrium) solubility assay. The conditions noted are these: aqueous buffer, thermodynamic from solid; 50 mM pH 7.4 phosphate buffer, 24 hours at room temperature. Type of data set: physicochemical. The protocol: Thermodynamic Solubility Studies. The compounds of the present disclosure were tested in an equilibrium solubility assay.
An appropriate amount of test and control compounds were weighed into lower chambers of Whatman Mini-UniPrep vials. To these were added 50 mM pH 7.4 phosphate buffer (450 μL) to get a super-saturated suspension. The samples were vortexed for at least 2 minutes. The Whatman Mini-UniPrep vials were shaken on a shaker for 24 hours at room temperature at 800 rpm. The vials were centrifuged for 20 minutes (eg. 4000 rpm). Samples were compressed to prepare filtrates for injection into HPLC system and the concentration calculated with a standard curve. […] As shown in the table, compounds of the present disclosure may display improved properties (e.g., over the compounds in the prior art), such as enhanced potency, solubility, membrane permeability and transporter efflux.

A short description of a further data set: PAMPA permeability assay. Type of data set: in vitro ADME. Conditions: 10 μM donor, PBS, 4 hours at room temperature, lecithin/dodecane membrane. The protocol:
PAMPA Studies. The compounds of the present disclosure were tested in a PAMPA permeability assay to assess passive transcellular permeation.
Protocol. 0.2 mM working solution was prepared by diluting 10 mM stock solution with DMSO. 10 μM donor solution (5% DMSO) was prepared by diluting 20 μL of working solution with 380 μL PBS. 150 μL of 10 μM donor solutions to each well of the donor plate, whose PVDF membrane was precoated with 5 μL of 1% lecithin/dodecane mixture. Duplicates were prepared. 300 μL of PBS was added to each well of the PTFE acceptor plate. The donor plate and acceptor plate were combined and incubated for 4 hours at room temperature with shaking at 300 rpm. Preparation of TO sample: 20 μL donor solution was transferred to new well followed by the addition of 250 μL PBS (DF: 13.5), 130 μL ACN (containing internal standard) as TO sample. Preparation of acceptor sample: The plate was removed from incubator. 270 μL solution was transferred from each acceptor well and mixed with 130 μL ACN (containing internal standard) as acceptor sample. Preparation of donor sample: 20 μL solution was transferred from each donor well and mixed with 250 μL PBS (DF: 13.5), 130 μL ACN (containing internal standard) as donor sample. Acceptor samples and donor samples were all analysed by LC-MS/MS.
The measured PAMPA permeability values of compounds of the present disclosure are shown in Table B below (“$$$$” means >10 nm/“$$$” means ≥3 and <10 nm/s; “$$” means ≥1 and <3 nm/s; “$” means <1 nm/s).

T1 sequence (P08183 whole entry): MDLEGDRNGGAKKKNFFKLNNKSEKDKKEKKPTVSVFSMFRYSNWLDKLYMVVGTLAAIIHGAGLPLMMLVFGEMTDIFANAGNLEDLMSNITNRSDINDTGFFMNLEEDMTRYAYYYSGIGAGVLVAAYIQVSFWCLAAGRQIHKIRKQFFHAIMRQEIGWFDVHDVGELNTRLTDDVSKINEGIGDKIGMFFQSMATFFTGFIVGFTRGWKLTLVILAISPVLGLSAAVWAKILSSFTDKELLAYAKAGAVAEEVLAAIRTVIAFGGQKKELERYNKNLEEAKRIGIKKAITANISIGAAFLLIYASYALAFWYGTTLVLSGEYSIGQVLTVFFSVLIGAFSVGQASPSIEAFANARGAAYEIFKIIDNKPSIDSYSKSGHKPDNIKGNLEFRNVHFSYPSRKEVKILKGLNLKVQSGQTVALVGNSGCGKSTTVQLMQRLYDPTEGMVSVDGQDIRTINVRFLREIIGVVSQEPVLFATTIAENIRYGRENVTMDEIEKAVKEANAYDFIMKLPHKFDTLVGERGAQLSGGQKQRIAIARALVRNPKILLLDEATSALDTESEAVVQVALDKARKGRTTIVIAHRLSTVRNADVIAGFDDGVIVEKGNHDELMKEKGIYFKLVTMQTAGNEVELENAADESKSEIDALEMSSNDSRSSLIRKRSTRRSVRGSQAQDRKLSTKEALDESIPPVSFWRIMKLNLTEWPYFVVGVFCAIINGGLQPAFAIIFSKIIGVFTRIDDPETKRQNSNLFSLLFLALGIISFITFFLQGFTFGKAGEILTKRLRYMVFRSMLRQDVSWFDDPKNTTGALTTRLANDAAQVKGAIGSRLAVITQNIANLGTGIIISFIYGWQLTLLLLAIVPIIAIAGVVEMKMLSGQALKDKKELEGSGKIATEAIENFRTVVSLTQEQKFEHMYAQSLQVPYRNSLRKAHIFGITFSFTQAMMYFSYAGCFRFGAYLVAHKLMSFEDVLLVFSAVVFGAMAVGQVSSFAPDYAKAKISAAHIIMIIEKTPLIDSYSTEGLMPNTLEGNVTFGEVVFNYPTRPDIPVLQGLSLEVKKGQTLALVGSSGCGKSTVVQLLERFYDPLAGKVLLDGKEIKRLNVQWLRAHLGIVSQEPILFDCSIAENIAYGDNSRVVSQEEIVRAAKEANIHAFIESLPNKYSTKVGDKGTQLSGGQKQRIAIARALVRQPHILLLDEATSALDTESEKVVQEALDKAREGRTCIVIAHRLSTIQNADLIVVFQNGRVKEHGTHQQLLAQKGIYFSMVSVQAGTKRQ

On to `Cn1cc(N(CC2CCCCO2)S(=O)(=O)NC(=O)Nc2c3c(cc4c2CC4)CC3)cn1` (stereo in doubt) [Compound 7A, Sodium [(1-methyl-1H-pyrazol-4-yl)({[(2S)-oxan-2-yl]methyl})sulfamoyl]-({tricyclo[6.2.0.0^3,6]deca-1,3(6),7-trien-2-yl}carbamoyl)azanide], for which the “MDCK-MDR1 ER” value on P-glycoprotein (P-gp) is “** (“**” means ≥10 and <30)”. Moreover, the IC50 in data set [1] is less than 100 nM. This molecule also yielded a thermodynamic solubility at 24 h in data set [2] of 3000 to 10000 µg/mL. Besides, the “PAMPA Pe” value in the data set “PAMPA permeability assay” was “$$$ (“$$$” means ≥3 and <10 nm/s)”.
`Cn1cc(N(C[C@@H]2CCCO2)S(=O)(=O)NC(=O)Nc2c3c(cc4c2CC4)CC3)cn1` [Compound 3A, Sodium [(1-methyl-1H-pyrazol-4-yl)({[(2S)-oxolan-2-yl]methyl})sulfamoyl]-({tricyclo[6.2.0.0^3,6]deca-1,3(6),7-trien-2-yl}carbamoyl)azanide]: the “MDCK-MDR1 ER” value at P-glycoprotein (P-gp) is recorded as “* (“*” means ≥30)”. Also, the IC50 in data set [1] is less than 100 nM.
Turning to `Cn1cc(N(CC2CCCCO2)S(=O)(=O)NC(=O)Nc2c3c(cc4c2CC4)CC3)cn1` (stereo in doubt) [Compound 7B, Sodium [(1-methyl-1H-pyrazol-4-yl)({[(2R)-oxan-2-yl]methyl})sulfamoyl]-({tricyclo[6.2.0.0^3,6]deca-1,3(6),7-trien-2-yl}carbamoyl)azanide)], the “MDCK-MDR1 ER” value at P-glycoprotein (P-gp) is listed as “* (“*” means ≥30)”. In addition, the IC50 in data set [1] was less than 100 nM. In data set [2], this molecule gave a solubility (thermodynamic) at 24 h of 3000 to 10000 µg/mL. Besides, the “PAMPA Pe” value in the data set “PAMPA permeability assay” is “$$$ (“$$$” means ≥3 and <10 nm/s)”.
On to `Cn1cc(N(C[C@H]2CCCO2)S(=O)(=O)NC(=O)Nc2c3c(cc4c2CC4)CC3)cn1` [Compound 3B, Sodium [(1-methyl-1H-pyrazol-4-yl)({[(2R)-oxolan-2-yl]methyl})sulfamoyl]-({tricyclo[6.2.0.0^3,6]deca-1,3(6),7-trien-2-yl}carbamoyl)azanide], for which, at P-glycoprotein (P-gp), the “MDCK-MDR1 ER” value is listed as “* (“*” means ≥30)”. Moreover, the IC50 in data set [1] was less than 100 nM.
